How the values were obtained:
p53 = p53 protein level (stabilization) by immunoblot in cotransfected COS7 cells; assay type: cell-based; conditions: COS7 cotransfection (FIG. 14, 15)
Experimental: (§1) Cells were transiently transfected with a total of 2 μg of expression plasmids. After 48 hours of the transfection, the cells were washed with ice-cold PBS and suspended in lysis buffer (pH 8.0; which contained 25 mM Tris-Cl, 137 mM sodium chloride, 1% Triton X-100, 1 mM phenylmethylsulfonyl fluoride (PMSF), and protease inhibitor mix (Roche Molecular Biochemicals)), followed by brief sonication. After centrifugation at 15000 rpm for 10 minutes, the supernatant was collected and assayed for protein concentrations by the Bradford assay (Bio-Rad). Equal amounts of lysates (protein amount: 50 μg) from the whole cells were denatured by boiling in Laemmli SDS-sample buffer, then separated on 10% SDS-polyacrylamide gel (SDS-PAGE), and transferred at room temperature for 1 hour to polyvinylidene difluoride (PVDF) membranes (Immobilon-P; Millipore) in Tris-glycine buffer containing 10% methanol. The membranes were blocked at room temperature for 1 hour with Tris-buffered saline (TBS-T) containing 5% skim milk and 0.1% Tween 20.
As previously reported, some protein kinases (e.g., c-Abl and PKCδ) that interact with p73 can stabilize p73. To confirm whether IKK-α influenced the stabilization of p73, COS7 cells were transfected with a constant amount of HA-p73α expression plasmid together with or without varying amounts of IKK-α expression plasmids and examined for HA-p73α protein levels. […]

p73 [1] = molecular target: T1, p73 (Homo sapiens, UniProt O15350); experiment: p73 protein level (stabilization) by immunoblot in cotransfected COS7 cells; assay type: cell-based; conditions: COS7 cotransfection (FIG. 14, 15, 29)
T1 construct: expressed in transfected cells; host or cells: COS7
T1 sequence (O15350 1-636): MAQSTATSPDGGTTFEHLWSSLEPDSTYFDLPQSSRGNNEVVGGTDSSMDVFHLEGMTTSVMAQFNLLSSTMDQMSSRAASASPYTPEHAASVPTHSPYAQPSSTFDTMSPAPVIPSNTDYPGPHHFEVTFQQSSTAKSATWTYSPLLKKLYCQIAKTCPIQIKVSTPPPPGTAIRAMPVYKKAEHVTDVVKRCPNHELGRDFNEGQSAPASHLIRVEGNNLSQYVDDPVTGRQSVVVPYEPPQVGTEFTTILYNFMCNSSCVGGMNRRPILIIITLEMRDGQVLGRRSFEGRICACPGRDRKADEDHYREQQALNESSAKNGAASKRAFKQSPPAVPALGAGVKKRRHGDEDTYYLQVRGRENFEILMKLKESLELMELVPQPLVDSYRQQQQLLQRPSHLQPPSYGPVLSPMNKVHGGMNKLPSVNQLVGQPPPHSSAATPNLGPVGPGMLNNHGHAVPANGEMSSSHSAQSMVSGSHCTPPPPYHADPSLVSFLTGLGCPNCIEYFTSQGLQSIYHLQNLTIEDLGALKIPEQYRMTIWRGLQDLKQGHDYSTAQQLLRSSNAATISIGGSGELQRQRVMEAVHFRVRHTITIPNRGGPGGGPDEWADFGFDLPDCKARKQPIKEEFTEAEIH
Experimental: as §1
As previously reported, some protein kinases (e.g., c-Abl and PKCδ) that interact with p73 can stabilize p73. To confirm whether IKK-α influenced the stabilization of p73, COS7 cells were transfected with a constant amount of HA-p73α expression plasmid together with or without varying amounts of IKK-α expression plasmids and examined for HA-p73α protein levels. […] Next, whether IKK-β influenced the stabilization of p73 and p53 was investigated by transient transfection.

H1299 cells = experiment: Apoptosis assay (trypan blue / Red-Gal double staining), p73α-dependent; assay type: cell-based, human; conditions: H1299, coexpression with HA-p73α, 48 hours (FIG. 25-27)
Experimental: To detect apoptosis via p73α and IKK overexpression, H1299 cells were seeded at a density of 1.5×10^4 cells/well onto a 6-well tissue culture dish. Next day, the cells were transiently transfected with 50 ng of β-galactosidase expression plasmid and 50 ng of HA-p73α expression plasmid in the presence or absence of varying amounts of IKK-α or IKK-β expression vectors (100, 200, or 400 ng). After 48 hours of the transfection, the cells were washed with ice-cold PBS and stained at room temperature for 10 minutes with 0.4% trypan blue (PBS solution). Then, the cells were washed twice with PBS, then fixed for 10 minutes in PBS containing 2.5% glutaraldehyde, 1 mM magnesium chloride, and 2 mM EGTA, and stained for 2 hours with Red-Gal (Research Organics) according to the method described in Bayon, Y. et al., Mol. Cell. Biol. 23: 1061-1074 (2003). Red-Gal was used as a marker for visualizing the transfected cells to evaluate the degree of apoptosis occurring in the transfectants. […] Results were indicated by an average of three independent transfections (each performed three times or more).
Potential effect(s) of IKK-α on p73-dependent biological functions such as the regulation of apoptosis was examined. […] After 48 hours of the transfection, the cells were subjected to double staining with trypan blue (nonviable cells) and Red-Gal (transfected cells), and the number of purple cells was scored.

HA-p73α = molecular target: T2, HA-p73α (Homo sapiens, UniProt O15350); experiment: Ubiquitination assay in COS7 cells; assay type: cell-based; conditions: COS7, HA-p73α and HA-ubiquitin, MG-132 (FIG. 18, 19)
T2 construct: expressed in transfected cells; host or cells: COS7
T2 sequence (O15350 1-636): T1 sequence (O15350 1-636)
Experimental: COS7 cells were transiently transfected with a constant amount of expression plasmids encoding HA-p73α and HA-Ub in the presence or absence of varying amounts of IKK-α expression plasmids. After […] from the transfection, the cells were exposed for 6 hours to a proteasome inhibitor MG-132 (final concentration: 20 μM), and lysates from the whole cells were first subjected to immunoprecipitation with an anti-p73 monoclonal antibody and then to immunoblot using an anti-HA monoclonal antibody (12CA5; Roche Molecular Biochemicals) to analyze ubiquitination levels.
As described by Lee, C.-W. et al., Oncogene 18: 4171-4181 (1999), the steady-state level of p73 was regulated at least partially by the proteolytic process through the ubiquitin-proteasome pathway. Whether IKK-α inhibited the ubiquitination of p73 was investigated. COS7 cells were transfected with expression plasmids for HA-p73α and HA-ubiquitin together with or without varying amounts of IKK-α or FLAG-IKK-β expression plasmids. After 48 hours of the transfection, lysates from the whole cells were analyzed by immunoprecipitation and immunoblot and examined for the presence of p73α containing HA-ubiquitin.

p73 [2] = experiment: Luciferase reporter assay, p73-dependent transcriptional activation in H1299 cells; assay type: cell-based, human; conditions: H1299, coexpression with HA-p73α or HA-p73β (FIG. 20, 21, 23)
Experimental: H1299 cells deficient in p53 were seeded at a density of 5×10^4 cells/well onto a 12-well tissue culture dish and transiently transfected with 100 ng of luciferase reporter construct (which carried a p53/p73-responsive element derived from a p21^WAF1, Bax, or MDM2 promoter), 10 ng of pRL-TK Renilla luciferase cDNA, and 25 ng of given expression plasmid (p53, HA-p73α, or HA-p73β) together with or without varying amounts of IKK-α or FLAG-IKK-β expression plasmids. The total amount of DNA per transfection was kept constant (510 ng) with a pcDNA3 empty plasmid. After 48 hours from the transfection, the cells were washed twice with ice-cold PBS and suspended in passive lysis buffer (Promega). Both firefly and Renilla luciferase activities were assayed by use of dual-luciferase reporter assay system (Promega) according to the instruction. […] intensity was measured with TD-20 luminometer (Turner Design). The firefly luciferase signal was normalized based on the Renilla luciferase signal. Results obtained from at least 3 transfections were indicated by mean value±standard deviation.
To explore the functional implication of interaction between IKK-α and p73, the effect of IKK-α on p73-mediated transcriptional activation was first examined. H1299 cells deficient in p53 were transfected with a HA-p73α or HA-p73β expression plasmid and a luciferase reporter construct under the control of a p21^WAF1, Bax, or MDM2 promoter together with or without varying amounts of IKK-α expression plasmids. […] By contrast, increase in p53-responsive reporter gene activity was not induced by IKK-α (FIG. 22). To examine the specificity of p73-dependent transcriptional activation mediated by IKK-α, whether IKK-β enhanced p73 transcriptional activity to p53/p73-responsive promoters was confirmed.

For “FLAG-IKK-β: IκB kinase catalytic subunit IKK-β (IKK-2), FLAG-tagged, expressed from plasmid as comparison”, the “stabilization of p53” value (p53) was “no detectable effect on the stabilization of both p73 and p53”, the “amount of HA-p73α” value (p73 [1]) was “no detectable effect on the stabilization of both p73 and p53” and the “number of cells undergoing p73α-dependent apoptosis” value (H1299 cells) was “no remarkable effect on p73α-dependent apoptosis”. The “amount of ubiquitinated p73α” value (HA-p73α) was “inhibited the ubiquitination of p73α to a somewhat lesser degree” and the “p73-dependent transcriptional activation of p21WAF1, Bax, MDM2 promoter reporters” value (p73 [2]) was “no remarkable change in p73-dependent transcriptional activation”.

Source: patent publication US7618787B2, “Method of screening compound capable of accelerating or inhibiting apoptosis, apoptosis accelarator and apoptosis inhibitor” (Hisamitsu Pharmaceutical Co., Inc., priority 2004, dated 2009)
